Assay results reported in ChEMBL document CHEMBL1201862, “PubChem BioAssay data set” (2004).
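Protocol summary: plate cells (96-well), add compound at 5 concentrations, incubate 48 h, interpolate endpoints linearly. The concentration for 50% growth inhibition is given as GI50.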 Activity calls are given as the source filed them. Rule as the data show it: active = GI50 up to about 1.1 µM and inactive = higher.

Columns and labels:
Assay in all cases: NCI anticancer screen, dose series, 48 h
[1] = tested on: CAKI-1
[2] = tested on: COLO 205
[3] = tested on: EKVX
[4] = tested on: HCC 2998
[5] = tested on: HOP-92
[6] = tested on: HT-29
[7] = tested on: IGROV-1
[8] = tested on: M14
[9] = tested on: Malme-3M
[10] = tested on: NCI-H226
[11] = tested on: NCI-H522
[12] = tested on: OVCAR-4
[13] = tested on: OVCAR-5
[14] = tested on: SF-539
[15] = tested on: SK-MEL-2
[16] = tested on: SK-MEL-5
[17] = tested on: SK-OV-3
[18] = tested on: SNB-75
[19] = tested on: SW-620
[20] = tested on: TK-10

| SMILES | GI50 [1] | GI50 [2] | GI50 [3] | GI50 [4] | GI50 [5] | GI50 [6] | GI50 [7] | GI50 [8] | GI50 [9] | GI50 [10] | GI50 [11] | GI50 [12] | GI50 [13] | GI50 [14] | GI50 [15] | GI50 [16] | GI50 [17] | GI50 [18] | GI50 [19] | GI50 [20] |
| --- | --- | --- | --- | --- | --- | --- | --- | --- | --- | --- | --- | --- | --- | --- | --- | --- | --- | --- | --- | --- |
| COc1ccc(C(OCC2OC(n3cc(C)c(=O)[nH]c3=O)CC2n2cc(Cn3cc(Br)c(=O)[nH]c3=O)nn2)(c2ccccc2)c2ccccc2)cc1 (configuration not stated) | > 100 µM (inactive) | > 100 µM (inactive) | > 100 µM (inactive) | > 100 µM (inactive) | > 100 µM (inactive) | > 100 µM (inactive) | 38.5 µM (inactive) | > 100 µM (inactive) | > 100 µM (inactive) | > 100 µM (inactive) | > 100 µM (inactive) | > 100 µM (inactive) | > 100 µM (inactive) | > 100 µM (inactive) | > 100 µM (inactive) | > 100 µM (inactive) | > 100 µM (inactive) | > 100 µM (inactive) | > 100 µM (inactive) | > 100 µM (inactive) |
| COC(=O)C(=O)C(C(=O)Nc1cccc(C)c1C)C1Sc2ccccc2NC1=O (configuration not stated) | > 25 µM (inactive) | 8.97 µM (inactive) | > 25 µM (inactive) | 15.6 µM (inactive) | 10.4 µM (inactive) | 7.8 µM (inactive) | 16.8 µM (inactive) | 8.55 µM (inactive) | 6.37 µM (inactive) | 16.7 µM (inactive) | 15.8 µM (inactive) | > 25 µM (inactive) | > 25 µM (inactive) | 12 µM (inactive) | 5.75 µM (inactive) | 8.11 µM (inactive) | > 25 µM (inactive) | 9.84 µM (inactive) | 8.55 µM (inactive) | > 25 µM (inactive) |
| CCOC(=O)c1cccc(NC(=O)CBr)c1 | 0.618 µM (active) | 1.72 µM (inactive) | 1.62 µM (inactive) | 2.3 µM (inactive) | 1.93 µM (inactive) | 1.69 µM (inactive) | 0.959 µM (active) | 1.3 µM (inactive) | 1.91 µM (inactive) | 0.76 µM (active) | 0.0164 µM (active) | 1.53 µM (inactive) | 1.75 µM (inactive) | 0.984 µM (active) | 1.56 µM (inactive) | 1.41 µM (inactive) | 1.85 µM (inactive) | 1.74 µM (inactive) | 0.361 µM (active) | 1.67 µM (inactive) |
| CC(C)C(=O)N1C(=O)O[C@@H](c2ccccc2)[C@H]1C | > 37 µM (inactive) | > 100 µM (inactive) | > 100 µM (inactive) | > 100 µM (inactive) | > 100 µM (inactive) | > 100 µM (inactive) | > 100 µM (inactive) | > 100 µM (inactive) | > 100 µM (inactive) | > 100 µM (inactive) | > 100 µM (inactive) | > 100 µM (inactive) | > 100 µM (inactive) | > 100 µM (inactive) | > 100 µM (inactive) | > 100 µM (inactive) | > 100 µM (inactive) | > 100 µM (inactive) | – | > 100 µM (inactive) |
| COCC1N=C(c2cc(OC)c(OC)c(OC)c2-c2cc3c(cc2[C@@H](C)O)OCO3)O[C@H]1c1ccccc1 (some centres not stated) | 99.8 µM (inactive) | > 100 µM (inactive) | 36.8 µM (inactive) | > 100 µM (inactive) | 34.4 µM (inactive) | 75.9 µM (inactive) | > 68.9 µM (inactive) | – | > 80.5 µM (inactive) | > 77.1 µM (inactive) | 36.2 µM (inactive) | 37.6 µM (inactive) | > 73.8 µM (inactive) | 77.4 µM (inactive) | > 53.3 µM (inactive) | > 76.7 µM (inactive) | 97.5 µM (inactive) | 25.9 µM (inactive) | > 100 µM (inactive) | – |
| COc1cc(/C=C(\C)[N+](=O)[O-])cc(OC)c1 | 14.5 µM (inactive) | 8.05 µM (inactive) | 19.2 µM (inactive) | 25.1 µM (inactive) | 13.5 µM (inactive) | 20 µM (inactive) | 6.46 µM (inactive) | 14.8 µM (inactive) | 14.8 µM (inactive) | > 52.5 µM (inactive) | 1.87 µM (inactive) | 18.1 µM (inactive) | 20.1 µM (inactive) | 9.18 µM (inactive) | 17.2 µM (inactive) | 16 µM (inactive) | > 100 µM (inactive) | 16.7 µM (inactive) | 4.49 µM (inactive) | 11.8 µM (inactive) |
